ChEMBL document CHEMBL4152377, “Design and Activity of Specific Hypoxia-Inducible Factor-2α (HIF-2α) Inhibitors for the Treatment of Clear Cell Renal Cell Carcinoma: Discovery of Clinical Candidate ( S)-3-((2,2-Difluoro-1-hydroxy-7-(methylsulfonyl)-2,3-dihydro-1 H-inden-4-yl)oxy)-5-fluorobenzonitrile (PT2385)” (J Med Chem, 2018)
One block for each compound: values may come before it. The source made the active and inactive calls. The calls are words filed in the database; no cut-off is given here.

Key:
[1] = biological target: T1, Endothelial PAS domain-containing protein 1 (Homo sapiens, UniProt Q99814)
T1 sequence (Q99814 whole entry, the tested form may be a part): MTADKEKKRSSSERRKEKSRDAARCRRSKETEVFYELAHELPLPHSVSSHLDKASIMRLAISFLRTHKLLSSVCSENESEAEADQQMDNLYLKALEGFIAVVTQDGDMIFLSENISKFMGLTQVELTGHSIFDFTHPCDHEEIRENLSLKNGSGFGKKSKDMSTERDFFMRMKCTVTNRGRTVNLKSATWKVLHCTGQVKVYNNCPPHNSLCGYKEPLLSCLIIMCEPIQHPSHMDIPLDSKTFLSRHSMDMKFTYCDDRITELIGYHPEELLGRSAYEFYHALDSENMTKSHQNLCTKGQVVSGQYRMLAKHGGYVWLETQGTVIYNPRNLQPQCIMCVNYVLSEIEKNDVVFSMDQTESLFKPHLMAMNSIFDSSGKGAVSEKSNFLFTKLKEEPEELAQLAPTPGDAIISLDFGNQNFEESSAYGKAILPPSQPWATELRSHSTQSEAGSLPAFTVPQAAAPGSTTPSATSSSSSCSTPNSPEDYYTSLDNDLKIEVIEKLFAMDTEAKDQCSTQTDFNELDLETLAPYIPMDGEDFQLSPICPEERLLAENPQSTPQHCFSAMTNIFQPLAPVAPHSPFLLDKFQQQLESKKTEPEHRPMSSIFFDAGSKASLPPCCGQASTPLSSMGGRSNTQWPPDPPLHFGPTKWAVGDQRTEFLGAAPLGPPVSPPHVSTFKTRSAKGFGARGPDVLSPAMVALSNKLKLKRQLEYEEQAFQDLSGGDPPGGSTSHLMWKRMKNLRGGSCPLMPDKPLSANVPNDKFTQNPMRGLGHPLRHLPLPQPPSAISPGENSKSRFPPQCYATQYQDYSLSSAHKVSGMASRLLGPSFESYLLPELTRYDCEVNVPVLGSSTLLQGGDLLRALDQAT

[2] = biological target: T1, Endothelial PAS domain-containing protein 1; remark: listed apart in the source
[3] = AUCt in Sprague-Dawley rat at 10 mg/kg, po via gavage by UPLC analysis; assay type: ADME, organism-based; conditions: in vivo
[4] = Oral bioavailability in CD1 mouse at 10 mg/kg by UPLC analysis; assay type: ADME, organism-based; conditions: in vivo
[5] = Clearance in Sprague-Dawley rat at 3 mg/kg, iv by UPLC analysis; assay type: ADME, organism-based; conditions: in vivo
[6] = test system: Mus musculus; test: In vivo inhibition of HIF-2alpha in SCID/Biege mouse xenografted with human 786-O cells assessed as reduction in CCND1 mRNA levels at 10 mg/kg, po bid for 3 days and measured after 12 hrs post last dose by qRT-PCR analysis; assay type: functional, organism-based
[7] = AUCt in CD1 mouse at 10 mg/kg, po by UPLC analysis; assay type: ADME, organism-based; conditions: in vivo
[8] = Plasma concentration in mouse after 12 hrs; assay type: ADME, cell-free
[9] = Half life in Sprague-Dawley rat at 10 mg/kg, po via gavage by UPLC analysis; assay type: ADME, organism-based; conditions: in vivo
[10] = Volume of distribution at steady state in CD1 mouse at 3 mg/kg, iv by UPLC analysis; assay type: ADME, organism-based; conditions: in vivo, read-out: Vdss
[11] = Intrinsic clearance in mouse liver microsomes at 1 uM measured up to 30 mins by LC-MS/MS analysis; assay type: ADME, microsome; conditions: read-out: CLH
[12] = test system: Mus musculus; test: Toxicity in SCID/Biege mouse xenografted with human 786-O cells assessed as effect on body weight at 10 mg/kg, po bid for 21 days; assay type: organism-based; conditions: in vivo, 504 h
[13] = Protein binding in mouse plasma at 10 uM after 4 hrs by LC-MS/MS analysis; assay type: ADME, cell-free; conditions: read-out: PPB (converted)
[14] = Volume of distribution at steady state in Sprague-Dawley rat at 3 mg/kg, iv by UPLC analysis; assay type: ADME, organism-based; conditions: in vivo, read-out: Vdss
[15] = test system: Mus musculus; test: Toxicity in SCID/Biege mouse xenografted with human 786-O cells assessed as mortality at 10 mg/kg, po bid for 21 days; assay type: organism-based; conditions: in vivo, 504 h
[16] = Half life in CD1 mouse at 10 mg/kg, po by UPLC analysis; assay type: ADME, organism-based; conditions: in vivo
[17] = Apparent permeability across apical to basolateral side in MDCK-MDR1 cells at 1 uM after 1 hr by LC/MS/MS analysis; assay type: ADME, cell-based, Canis lupus familiaris; conditions: dog
[18] = test system: 786-0; test: In vivo inhibition of HIF-2alpha in SCID/Biege mouse xenografted with human 786-O cells assessed as reduction in tumor derived VEGFA protein levels at 10 mg/kg, po bid for 3 days and measured after 12 hrs post last dose by ELISA; assay type: functional, organism-based
[19] = Oral bioavailability in Sprague-Dawley rat at 10 mg/kg administered via gavage by UPLC analysis; assay type: ADME, organism-based; conditions: in vivo
[20] = test system: Mus musculus; test: Minimum drug level in SCID/Biege mouse xenografted with human 786-O cells at 10 mg/kg, po bid for 3 days and measured after 12 hrs post last dose by LC-MS/MS analysis; assay type: ADME, organism-based; conditions: in vivo
[21] = Clearance in CD1 mouse at 3 mg/kg, iv by UPLC analysis; assay type: ADME, organism-based; conditions: in vivo
[22] = test system: Mus musculus; test: Toxicity in SCID/Biege mouse xenografted with human 786-O cells assessed as morbidity at 10 mg/kg, po bid for 21 days; assay type: organism-based; conditions: in vivo, 504 h
[23] = test system: 786-0; test: Antitumor activity against human 786-O cells xenografted in SCID/Biege mouse assessed as tumor regression at 10 mg/kg, po bid for 21 days; assay type: functional, organism-based
[24] = test system: Mus musculus; test: In vivo inhibition of HIF-2alpha in SCID/Biege mouse xenografted with human 786-O cells assessed as reduction in VEGFA mRNA levels at 10 mg/kg, po bid for 3 days and measured after 12 hrs post last dose by qRT-PCR analysis; assay type: functional, organism-based
[25] = Efflux ratio of apparent permeability in MDCK-MDR1 cells at 1 uM after 1 hr by LC/MS/MS analysis; assay type: ADME, cell-based, Canis lupus familiaris; conditions: dog
[26] = biological target: T1, Endothelial PAS domain-containing protein 1; test: Antagonist activity at HIF-2alpha in human 786-O cells assessed as free plasma adjusted EC50 for reduction in VEGFA concentration after 24 hrs by ELISA; assay type: cell-based
[27] = biological target: T1, Endothelial PAS domain-containing protein 1; test: Antagonist activity at HIF-2alpha in human 786-O cells assessed as reduction in VEGFA concentration after 24 hrs by ELISA; assay type: cell-based

Structure (SMILES): CC1(C)C(O)c2c(ccc(Oc3cc(F)cc(Cl)c3)c2Br)S1(=O)=O (centres undefined)
- IC50 [1]: 19600 nM

Structure (SMILES): CC(=O)NCc1c(S(=O)(=O)C(F)F)ccc(Oc2cc(F)cc(Cl)c2)c1Br
- IC50 [1]: 18200 nM

Structure (SMILES): N#Cc1cc(F)cc(Oc2ccc(S(=O)(=O)C(F)F)c3c2CC(F)(F)[C@H]3O)c1
- AUC(0-t) [3]: 0.39 µM·h
- bioavailability [4]: 67%
- clearance [5]: 57.7 mL/min/kg
- inhibition [6]: Active
- AUC(0-t) [7]: 7.3 µM·h
- concentration at 12 h [8]: 380 nM
- half-life [9]: 5.4 h
- Vd [10]: 7.4 L/kg
- CLint scaled at 1 µM [11]: 32.2 mL/min/kg
- Activity [12]: Non-Toxic
- fraction unbound at 4 h, 10 µM [13]: 0.06
- Vd [14]: 5.55 L/kg
- Activity [15]: Non-Toxic
- half-life [16]: 7.3 h
- Papp A→B at 1 h, 1 µM [17]: 2.84 ×10⁻⁶ cm/s
- inhibition [18]: Active
- bioavailability [19]: 6%
- Drug uptake [20]: Active
- clearance [21]: 34.3 mL/min/kg
- Activity [22]: Non-Toxic
- Activity [23]: Active
- inhibition [24]: Active

Structure (SMILES): CS(=O)(=O)c1ccc(Oc2cc(F)cc(Cl)c2)c(Br)c1
- IC50 [1]: 4400 nM

Structure (SMILES): N#Cc1cc(F)cc(Oc2ccc(S(=O)(=O)C(F)(F)F)c3c2CC(F)(F)[C@H]3O)c1
- EC50 [2]: < 5 nM

Structure (SMILES): O=C(O)c1cc(S(=O)(=O)C(F)(F)F)ccc1Oc1cc(F)cc(Cl)c1
- IC50 [1]: 44400 nM

Structure (SMILES): N#Cc1cc(F)cc(Oc2ccc(S(=O)(=O)CF)c3c2CC(F)(F)[C@H]3O)c1
- AUC(0-t) [3]: 2.14 µM·h
- bioavailability [4]: 91%
- clearance [5]: 57.6 mL/min/kg
- inhibition [6]: Active
- AUC(0-t) [7]: 9.46 µM·h
- concentration at 12 h [8]: 1100 nM
- EC50 [2]: 9 nM
- efflux ratio at 1 h, 1 µM [25]: 1.04
- half-life [9]: 2.9 h
- Vd [10]: 12.6 L/kg
- CLint scaled at 1 µM [11]: 26.9 mL/min/kg
- Activity [12]: Non-Toxic
- fraction unbound at 4 h, 10 µM [13]: 0.11
- Vd [14]: 6.15 L/kg
- Activity [15]: Non-Toxic
- EC50 [26]: 182 nM
- half-life [16]: 5.5 h
- EC50 [27]: 20 nM
- Papp A→B at 1 h, 1 µM [17]: 2.73 ×10⁻⁶ cm/s
- inhibition [18]: Active
- bioavailability [19]: 32%
- Drug uptake [20]: Active
- clearance [21]: 32.3 mL/min/kg
- Activity [22]: Non-Toxic
- Activity [23]: Active
- inhibition [24]: Active

Structure (SMILES): N#Cc1cc(F)cc(Oc2ccc(S(=O)(=O)C(F)F)c(C(=O)O)c2C(F)F)c1
- IC50 [1]: > 100000 nM

Structure (SMILES): CC(O)c1ccc(Nc2cc(F)cc(Cl)c2)c([N+](=O)[O-])c1 (centres undefined)
- IC50 [1]: 12700 nM

Continued, values first:

- IC50 [1]: 4200 nM
Structure (SMILES): COCc1c(S(=O)(=O)C(F)F)ccc(Oc2cc(F)cc(Cl)c2)c1Cl

- EC50 [2]: 180 nM
- IC50 [1]: 140 nM
Structure (SMILES): N#Cc1cncc(Oc2ccc3c(c2C(F)F)C(O)C(F)(F)S3(=O)=O)c1 (centres undefined)

- IC50 [1]: 3200 nM
Structure (SMILES): O=S1(=O)CCC(O)c2c1ccc(Oc1cc(F)cc(F)c1)c2C(F)F (centres undefined)

- IC50 [1]: 280 nM
Structure (SMILES): O=[N+]([O-])c1cc(S(=O)(=O)CF)ccc1Nc1cc(F)cc(Cl)c1

- IC50 [1]: 1200 nM
Structure (SMILES): O=S(=O)(c1ccc(Oc2cc(F)cc(Cl)c2)c(CO)c1)C(F)(F)F

- IC50 [1]: 32 nM
Structure (SMILES): O=[N+]([O-])c1cc(S(=O)(=O)C(F)(F)F)ccc1Oc1cc(F)cc(Cl)c1

- EC50 [2]: 3700 nM
- IC50 [1]: 170 nM
Structure (SMILES): O=S(=O)(c1ccc(Oc2cc(F)cc(Cl)c2)c(Br)c1)C(F)(F)F

- EC50 [2]: 20 nM
- IC50 [1]: < 5 nM
Structure (SMILES): O=S(=O)(c1ccc(Oc2cc(F)cc(Cl)c2)c2c1C(O)C(F)(F)C2)C(F)F (racemic)

- EC50 [2]: 630 nM
- IC50 [1]: 350 nM
Structure (SMILES): O=S1(=O)c2ccc(Oc3cncc(Cl)c3)c(C(F)F)c2C(O)C1(F)F (centres undefined)

- IC50 [1]: 3600 nM
Structure (SMILES): CS(=O)(=O)c1ccc(Oc2cc(F)cc(C#N)c2)c2c1C(O)C(F)(F)CC2 (racemic)
